Results reported in PubChem BioAssay AID328 (DTP/NCI, 2004).
“And” between values parts separate entries of the source, which are not always exact repeats. Equal values may be shown once. Toxic doses and inconclusive results are not listed.

Test system: BDF1 mice, P388 leukemia ip, median survival T/C
Experiment: NCI In Vivo Anticancer Drug Screen. Data for tumor model P388 Leukemia (intraperitoneal) in B6D2F1 (BDF1) mice
Details: endpoint: median survival time, higher = longer survival
Method in brief: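 Survival ratio, drug arm over vehicle arm, in mice with a transplanted tumour.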

[1] = dose: 1.0 mg/kg/injection, schedule: Q01DX009 (ip), vehicle: Klucel (hydroxypropylcellulose) (HPC)
[2] = dose: 50.0 mg/kg/injection, schedule: Q01DX009 (ip), vehicle: Klucel (hydroxypropylcellulose) (HPC)

In the case of `CCCCCCCCCCCCCC(=O)O[C@@H]1[C@@H](C)[C@@]2(O)[C@@H](C=C(CO)C[C@]3(OC)C(=O)C(C)=C[C@@H]23)[C@@H]2C(C)(C)[C@]12OC(C)=O`, the T/C (dose: 0.03 mg/kg/injection, schedule: Q01DX009 (ip), vehicle: saline + alcohol) is reported as 91 % of control, the T/C (dose: 0.06 mg/kg/injection, schedule: Q01DX009 (ip), vehicle: Klucel (hydroxypropylcellulose) (HPC)) is reported as 91 % of control and the T/C (dose: 0.06 mg/kg/injection, schedule: Q01DX009 (ip), vehicle: saline + alcohol) is reported as 94 % of control. For the same compound, the T/C (dose: 0.12 mg/kg/injection, schedule: Q01DX009 (ip), vehicle: Klucel (hydroxypropylcellulose) (HPC)) was 94 % of control, the T/C (dose: 0.12 mg/kg/injection, schedule: Q01DX009 (ip), vehicle: saline + alcohol) was 117 % of control and the T/C (dose: 0.25 mg/kg/injection, schedule: Q01DX009 (ip), vehicle: Klucel (hydroxypropylcellulose) (HPC)) was 94 % of control. The T/C (dose: 0.25 mg/kg/injection, schedule: Q01DX009 (ip), vehicle: saline + alcohol) was 94 % of control, the T/C (dose: 0.5 mg/kg/injection, schedule: Q01DX009 (ip), vehicle: Klucel (hydroxypropylcellulose) (HPC)) was 110 % of control and the T/C (dose: 0.5 mg/kg/injection, schedule: Q01DX009 (ip), vehicle: saline + alcohol) was 107 % of control. For the same compound, the T/C [1] was 94 % of control, the T/C (dose: 1.0 mg/kg/injection, schedule: Q01DX009 (ip), vehicle: saline + alcohol) was 100 % of control and the T/C (dose: 3.1 micrograms/kg/injection, schedule: Q01DX009 (ip), vehicle: gum acacia) was 106 % of control. For the same compound, the T/C (dose: 3.1 micrograms/kg/injection, schedule: Q01DX009 (ip), vehicle: saline + alcohol) was 94 % of control, the T/C (dose: 3.1 micrograms/kg/injection, schedule: Q01DX009 (ip), vehicle: saline with Tween-80) was 87 % of control and the T/C (dose: 6.2 micrograms/kg/injection, schedule: Q01DX009 (ip), vehicle: gum acacia) was 97 % of control. The T/C (dose: 6.2 micrograms/kg/injection, schedule: Q01DX009 (ip), vehicle: saline + alcohol) was 87 % of control, the T/C (dose: 6.2 micrograms/kg/injection, schedule: Q01DX009 (ip), vehicle: saline with Tween-80) was 97 % of control and the T/C (dose: 12.5 micrograms/kg/injection, schedule: Q01DX009 (ip), vehicle: gum acacia) was 87 % of control. For the same compound, the T/C (dose: 12.5 micrograms/kg/injection, schedule: Q01DX009 (ip), vehicle: saline + alcohol) was 94 % of control, the T/C (dose: 12.5 micrograms/kg/injection, schedule: Q01DX009 (ip), vehicle: saline with Tween-80) was 160 % of control and the T/C (dose: 25.0 micrograms/kg/injection, schedule: Q01DX009 (ip), vehicle: saline + alcohol) was 103 % of control. The T/C (dose: 25.0 micrograms/kg/injection, schedule: Q01DX009 (ip), vehicle: saline with Tween-80) was 103 % of control, the T/C (dose: 50.0 micrograms/kg/injection, schedule: Q01DX009 (ip), vehicle: gum acacia) was 122 % of control and the T/C (dose: 50.0 micrograms/kg/injection, schedule: Q01DX009 (ip), vehicle: saline + alcohol) was 101 % of control. For the same compound, the T/C (dose: 50.0 micrograms/kg/injection, schedule: Q01DX009 (ip), vehicle: saline with Tween-80) was 87 % of control, the T/C (dose: 100.0 micrograms/kg/injection, schedule: Q01DX009 (ip), vehicle: gum acacia) was 106 % of control and the T/C (dose: 100.0 micrograms/kg/injection, schedule: Q01DX009 (ip), vehicle: saline + alcohol) was 97 % of control. For the same compound, the T/C (dose: 100.0 micrograms/kg/injection, schedule: Q01DX009 (ip), vehicle: saline with Tween-80) was 122 % of control, the T/C (dose: 200.0 micrograms/kg/injection, schedule: Q01DX009 (ip), vehicle: gum acacia) was 113 % of control and the T/C (dose: 200.0 micrograms/kg/injection, schedule: Q01DX009 (ip), vehicle: saline + alcohol) was 97 % of control. For the same compound, the T/C (dose: 200.0 micrograms/kg/injection, schedule: Q01DX009 (ip), vehicle: saline with Tween-80) was 106 % of control, the T/C (dose: 400.0 micrograms/kg/injection, schedule: Q01DX009 (ip), vehicle: gum acacia) was 160 % of control and the T/C (dose: 400.0 micrograms/kg/injection, schedule: Q01DX009 (ip), vehicle: saline + alcohol) was 94 % of control. For the same compound, the T/C (dose: 400.0 micrograms/kg/injection, schedule: Q01DX009 (ip), vehicle: saline with Tween-80) was 94 % of control, the T/C (dose: 800.0 micrograms/kg/injection, schedule: Q01DX009 (ip), vehicle: gum acacia) was 94 % of control and the T/C (dose: 800.0 micrograms/kg/injection, schedule: Q01DX009 (ip), vehicle: saline + alcohol) was 106 % of control. The T/C (dose: 800.0 micrograms/kg/injection, schedule: Q01DX009 (ip), vehicle: saline with Tween-80) was 169 % of control.
In the case of `CC(C)C(Br)C(N)=O` (configuration not stated), the T/C (dose: 12.5 mg/kg/injection, schedule: Q04DX003 (ip), vehicle: saline) is reported as 104 % of control, the T/C (dose: 25.0 mg/kg/injection, schedule: Q04DX003 (ip), vehicle: saline) is reported as 109 % of control and the T/C (dose: 50.0 mg/kg/injection, schedule: Q04DX003 (ip), vehicle: saline) is reported as 109 % of control.
In the case of `O=C(O)c1ccc(NC(=O)C(F)(F)F)cc1`, the T/C (dose: 25.0 mg/kg/injection, schedule: Q04DX003 (ip), vehicle: saline sonified) is reported as 86 % of control and the T/C (dose: 100.0 mg/kg/injection, schedule: Q04DX003 (ip), vehicle: saline sonified) is reported as 95 % of control.
In the case of `CC(=O)NNC(=O)c1ccccc1`, the T/C (dose: 12.0 mg/kg/injection, schedule: Q04DX003 (ip), vehicle: Klucel (hydroxypropylcellulose) (HPC)) is reported as 104 % of control, the T/C (dose: 25.0 mg/kg/injection, schedule: Q04DX003 (ip), vehicle: Klucel (hydroxypropylcellulose) (HPC)) is reported as 100 % of control and the T/C [2] is reported as 87 % of control. For the same compound, the T/C (dose: 50.0 mg/kg/injection, schedule: Q04DX003 (ip), vehicle: Klucel (hydroxypropylcellulose) (HPC)) was 104 % of control, the T/C (dose: 75.0 mg/kg/injection, schedule: Q01DX009 (ip), vehicle: Klucel (hydroxypropylcellulose) (HPC)) was 105 % of control and the T/C (dose: 75.0 mg/kg/injection, schedule: Q04DX003 (ip), vehicle: Klucel (hydroxypropylcellulose) (HPC)) was 100 % of control. For the same compound, the T/C (dose: 100.0 mg/kg/injection, schedule: Q01DX009 (ip), vehicle: Klucel (hydroxypropylcellulose) (HPC)) was 87 % of control, the T/C (dose: 100.0 mg/kg/injection, schedule: Q04DX003 (ip), vehicle: Klucel (hydroxypropylcellulose) (HPC)) was 90 % of control and the T/C (dose: 150.0 mg/kg/injection, schedule: Q01DX009 (ip), vehicle: Klucel (hydroxypropylcellulose) (HPC)) was 110 % of control. For the same compound, the T/C (dose: 200.0 mg/kg/injection, schedule: Q01DX009 (ip), vehicle: Klucel (hydroxypropylcellulose) (HPC)) was 91 % of control, the T/C (dose: 200.0 mg/kg/injection, schedule: Q04DX003 (ip), vehicle: Klucel (hydroxypropylcellulose) (HPC)) was 95 % of control and 100 % of control and the T/C (dose: 400.0 mg/kg/injection, schedule: Q04DX003 (ip), vehicle: Klucel (hydroxypropylcellulose) (HPC)) was 109 % of control and 118 % of control.
In the case of `CCCCSc1ncnc2nc[nH]c12`, the T/C (dose: 100.0 mg/kg/injection, schedule: Q04DX003 (ip), vehicle: saline with Tween-80) is reported as 104 % of control and the T/C (dose: 200.0 mg/kg/injection, schedule: Q04DX003 (ip), vehicle: saline with Tween-80) is reported as 100 % of control.
For `CCOC(=O)c1sc2nc(C)cc(C)c2c1N`, the T/C (dose: 100.0 mg/kg/injection, schedule: Q01DX005 (ip), vehicle: saline with Tween-80) was 100 % of control and the T/C (dose: 200.0 mg/kg/injection, schedule: Q01DX005 (ip), vehicle: saline with Tween-80) was 110 % of control.
In the case of `CNC[C@@H](O)c1ccc(O)c(O)c1`, the T/C (dose: 0.25 mg/kg/injection, schedule: Q04DX003 (ip), vehicle: saline) is reported as 110 % of control, the T/C (dose: 0.5 mg/kg/injection, schedule: Q01DX009 (ip), vehicle: saline) is reported as 91 % of control and 109 % of control and the T/C (dose: 0.5 mg/kg/injection, schedule: Q04DX003 (ip), vehicle: saline) is reported as 110 % of control. The T/C (dose: 1.0 mg/kg/injection, schedule: Q01DX001 (ip), vehicle: saline) was 95 % of control, the T/C (dose: 1.0 mg/kg/injection, schedule: Q01DX009 (ip), vehicle: saline) was 100 % of control and the T/C (dose: 1.0 mg/kg/injection, schedule: Q04DX003 (ip), vehicle: saline) was 105 % of control. The T/C (dose: 2.0 mg/kg/injection, schedule: Q01DX001 (ip), vehicle: saline) was 104 % of control, the T/C (dose: 2.0 mg/kg/injection, schedule: Q01DX009 (ip), vehicle: saline) was 91 % of control and 109 % of control and the T/C (dose: 2.0 mg/kg/injection, schedule: Q04DX003 (ip), vehicle: saline) was 86 % of control. For the same compound, the T/C (dose: 4.0 mg/kg/injection, schedule: Q01DX009 (ip), vehicle: saline) was 95 % of control and 100 % of control and the T/C (dose: 9.0 mg/kg/injection, schedule: Q01DX009 (ip), vehicle: saline) was 95 % of control.
`CC(C)(C#N)N=NC(C)(C)C#N` was tested, and the T/C (dose: 12.5 mg/kg/injection, schedule: Q01DX009 (ip), vehicle: Klucel (hydroxypropylcellulose) (HPC)) was 95 % of control, the T/C (dose: 25.0 mg/kg/injection, schedule: Q01DX009 (ip), vehicle: Klucel (hydroxypropylcellulose) (HPC)) was 90 % of control and the T/C [2] was 90 % of control.
`Cn1c(Cl)nc2c(Cl)nc(Cl)nc21` was tested, and the T/C [1] was 105 % of control, the T/C (dose: 2.0 mg/kg/injection, schedule: Q01DX009 (ip), vehicle: Klucel (hydroxypropylcellulose) (HPC)) was 100 % of control and the T/C (dose: 4.0 mg/kg/injection, schedule: Q01DX009 (ip), vehicle: Klucel (hydroxypropylcellulose) (HPC)) was 110 % of control. For the same compound, the T/C (dose: 8.0 mg/kg/injection, schedule: Q01DX009 (ip), vehicle: Klucel (hydroxypropylcellulose) (HPC)) was 105 % of control and the T/C (dose: 16.0 mg/kg/injection, schedule: Q01DX009 (ip), vehicle: Klucel (hydroxypropylcellulose) (HPC)) was 100 % of control.
